From patent US20230085307A1, “PYRIDAZINONE COMPOUND AND HERBICIDE” (NISSAN CHEMICAL CORPORATION, priority 2019, published 2023)

Tests used:
late watergrass = test: Test Example 2: herbicidal activity, application during weed generation under submerged conditions (Table 17, symbol A); type: in vivo, late watergrass (Echinochloa oryzicola); settings: AAH 320 g/ha; application during weed generation, submerged conditions
In short: (§1)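 Steps: fill Wagner pots with alluvial soil; add water to give 4 cm depth; sow the species mixed; grow under glass at 25–30° C.; at 1–2 leaves apply water-diluted emulsion formulation to the water surface at a fixed herbicide amount; score after 3 weeks.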

Japanese bulrush = test: Test Example 2: herbicidal activity, application during weed generation under submerged conditions (Table 17, symbol B); type: in vivo, Japanese bulrush (Schoenoplectus juncoides); settings: AAH 320 g/ha; application during weed generation, submerged conditions
In short: as §1

oval-leafed pondweed = test: Test Example 2: herbicidal activity, application during weed generation under submerged conditions (Table 17, symbol C); type: in vivo, oval-leafed pondweed (Monochoria vaginalis); settings: AAH 320 g/ha; application during weed generation, submerged conditions
In short: as §1

barnyard grass [1] = test: Test Example 3: herbicidal effect by foliage application, Wagner pot (Table 18, symbol H); type: in vivo, barnyard grass (Echinochloa crus-galli); settings: 320 g/ha
In short: (§2)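 Plants were sown in alluvial soil held under 0.1–0.5 cm standing water and grown 14 days in a greenhouse at 25–30 °C. An emulsifiable formulation, water-diluted to the set dose, was then sprayed onto the foliage, and effects were scored three weeks later using previously defined criteria.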

Chinese sprangletop = test: Test Example 3: herbicidal effect by foliage application, Wagner pot (Table 18, symbol D); type: in vivo, chinese sprangletop (Leptochloa chinensis); settings: 320 g/ha
In short: as §2

rice flat sedge = test: Test Example 3: herbicidal effect by foliage application, Wagner pot (Table 18, symbol E); type: in vivo, rice flat sedge (Cyperus iria); settings: 320 g/ha
In short: as §2

southern crabgrass [2] = test: Test Example 4: herbicidal effect by soil treatment (Table 19, symbol F); type: in vivo, southern crabgrass (Digitaria ciliaris); settings: amount of applied herbicide 320 g/ha
In short: (§3)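 Emulsion of test compound, water-diluted to predetermined amount, sprayed on soil after sowing (seed depth ~1.5 cm, sterilized diluvial soil). Greenhouse, 25–30° C. Effect graded at three weeks post-spray.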

green foxtail [3] = test: Test Example 4: herbicidal effect by soil treatment (Table 19, symbol G); type: in vivo, green foxtail (Setaria viridis); settings: amount of applied herbicide 320 g/ha
In short: as §3

barnyard grass [4] = test: Test Example 4: herbicidal effect by soil treatment (Table 19, symbol H); type: in vivo, barnyard grass (Echinochloa crus-galli); settings: amount of applied herbicide 320 g/ha
In short: as §3

wild oat [5] = test: Test Example 4: herbicidal effect by soil treatment (Table 19, symbol I); type: in vivo, wild oat (Avena fatua); settings: amount of applied herbicide 320 g/ha
In short: as §3

blackgrass [6] = test: Test Example 4: herbicidal effect by soil treatment (Table 19, symbol J); type: in vivo, blackgrass (Alopecurus myosuroides); settings: amount of applied herbicide 320 g/ha
In short: as §3

Italian ryegrass [7] = test: Test Example 4: herbicidal effect by soil treatment (Table 19, symbol K); type: in vivo, Italian ryegrass (Lolium multiflorum); settings: amount of applied herbicide 320 g/ha
In short: as §3

windgrass [8] = test: Test Example 4: herbicidal effect by soil treatment (Table 19, symbol L); type: in vivo, windgrass (Apera spica-venti); settings: amount of applied herbicide 320 g/ha
In short: as §3

velvetleaf [9] = test: Test Example 4: herbicidal effect by soil treatment (Table 19, symbol M); type: in vivo, velvetleaf (Abutilon theophrasti); settings: amount of applied herbicide 320 g/ha
In short: as §3

redroot pigweed [10] = test: Test Example 4: herbicidal effect by soil treatment (Table 19, symbol N); type: in vivo, redroot pigweed (Amaranthus retroflexus); settings: amount of applied herbicide 320 g/ha
In short: as §3

lambsquarters [11] = test: Test Example 4: herbicidal effect by soil treatment (Table 19, symbol O); type: in vivo, lambsquarters (Chenopodium album); settings: amount of applied herbicide 320 g/ha
In short: as §3

chickweed [12] = test: Test Example 4: herbicidal effect by soil treatment (Table 19, symbol P); type: in vivo, common chickweed (Stellaria media); settings: amount of applied herbicide 320 g/ha
In short: as §3

persian speedwell [13] = test: Test Example 4: herbicidal effect by soil treatment (Table 19, symbol R); type: in vivo, Persian speedwell (Veronica persica); settings: amount of applied herbicide 320 g/ha
In short: as §3

southern crabgrass [14] = test: Test Example 5: herbicidal effect by foliage application, plastic box (Table 20, symbol F); type: in vivo, southern crabgrass (Digitaria ciliaris); settings: 320 g/ha, foliage application after 14-day growth, evaluated three weeks after application
In short: (§4)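 Post-emergence foliar test in sterilized diluvial soil. Compound applied as water-diluted emulsion at a predetermined rate to 14-day-old plants; evaluation at three weeks.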

green foxtail [15] = test: Test Example 5: herbicidal effect by foliage application, plastic box (Table 20, symbol G); type: in vivo, green foxtail (Setaria viridis); settings: 320 g/ha, foliage application after 14-day growth, evaluated three weeks after application
In short: as §4

barnyard grass [16] = test: Test Example 5: herbicidal effect by foliage application, plastic box (Table 20, symbol H); type: in vivo, barnyard grass (Echinochloa crus-galli); settings: 320 g/ha, foliage application after 14-day growth, evaluated three weeks after application
In short: as §4

wild oat [17] = test: Test Example 5: herbicidal effect by foliage application, plastic box (Table 20, symbol I); type: in vivo, wild oat (Avena fatua); settings: 320 g/ha, foliage application after 14-day growth, evaluated three weeks after application
In short: as §4

blackgrass [18] = test: Test Example 5: herbicidal effect by foliage application, plastic box (Table 20, symbol J); type: in vivo, blackgrass (Alopecurus myosuroides); settings: 320 g/ha, foliage application after 14-day growth, evaluated three weeks after application
In short: as §4

Italian ryegrass [19] = test: Test Example 5: herbicidal effect by foliage application, plastic box (Table 20, symbol K); type: in vivo, Italian ryegrass (Lolium multiflorum); settings: 320 g/ha, foliage application after 14-day growth, evaluated three weeks after application
In short: as §4

windgrass [20] = test: Test Example 5: herbicidal effect by foliage application, plastic box (Table 20, symbol L); type: in vivo, windgrass (Apera spica-venti); settings: 320 g/ha, foliage application after 14-day growth, evaluated three weeks after application
In short: as §4

velvetleaf [21] = test: Test Example 5: herbicidal effect by foliage application, plastic box (Table 20, symbol M); type: in vivo, velvetleaf (Abutilon theophrasti); settings: 320 g/ha, foliage application after 14-day growth, evaluated three weeks after application
In short: as §4

redroot pigweed [22] = test: Test Example 5: herbicidal effect by foliage application, plastic box (Table 20, symbol N); type: in vivo, redroot pigweed (Amaranthus retroflexus); settings: 320 g/ha, foliage application after 14-day growth, evaluated three weeks after application
In short: as §4

lambsquarters [23] = test: Test Example 5: herbicidal effect by foliage application, plastic box (Table 20, symbol O); type: in vivo, lambsquarters (Chenopodium album); settings: 320 g/ha, foliage application after 14-day growth, evaluated three weeks after application
In short: as §4

chickweed [24] = test: Test Example 5: herbicidal effect by foliage application, plastic box (Table 20, symbol P); type: in vivo, common chickweed (Stellaria media); settings: 320 g/ha, foliage application after 14-day growth, evaluated three weeks after application
In short: as §4

persian speedwell [25] = test: Test Example 5: herbicidal effect by foliage application, plastic box (Table 20, symbol R); type: in vivo, Persian speedwell (Veronica persica); settings: 320 g/ha, foliage application after 14-day growth, evaluated three weeks after application
In short: as §4

## CCCC(=O)Oc1c(C)nn(C)c(=O)c1-c1c(-c2ccccc2OC)sc2c(F)cccc12 [4-004]
Late watergrass
  herbicidal effect rating, A: late watergrass: 3 (Herbicidal rate of 40% or more and less than 70%)
Japanese bulrush
  herbicidal effect rating, B: Japanese bulrush: 0 (Herbicidal rate of 5% or less (almost no effect))
oval-leafed pondweed
  herbicidal effect rating, C: oval-leafed pondweed: 2 (Herbicidal rate of 20% or more and less than 40%)
Barnyard grass [1]
  herbicidal effect on barnyard grass (H): 4 (Herbicidal rate of 70% or more and less than 90%)
Chinese sprangletop
  herbicidal effect on Chinese sprangletop (D): 3 (Herbicidal rate of 40% or more and less than 70%)
Rice flat sedge
  herbicidal effect on rice flat sedge (E): 4 (Herbicidal rate of 70% or more and less than 90%)
Southern crabgrass [2]
  Herbicidal effect by soil treatment, F: southern crabgrass: 0 (Herbicidal rate of 5% or less (almost no effect))
Green foxtail [3]
  Herbicidal effect by soil treatment, G: green foxtail: 0 (Herbicidal rate of 5% or less (almost no effect))
Barnyard grass [4]
  Herbicidal effect by soil treatment, H: barnyard grass: 1 (Herbicidal rate of 5% or more and less than 20%)
Wild oat [5]
  Herbicidal effect by soil treatment, I: wild oat: 0 (Herbicidal rate of 5% or less (almost no effect))
Blackgrass [6]
  Herbicidal effect by soil treatment, J: blackgrass: 0 (Herbicidal rate of 5% or less (almost no effect))
Italian ryegrass [7]
  Herbicidal effect by soil treatment, K: Italian ryegrass: 0 (Herbicidal rate of 5% or less (almost no effect))
Windgrass [8]
  Herbicidal effect by soil treatment, L: windgrass: 0 (Herbicidal rate of 5% or less (almost no effect))
Velvetleaf [9]
  Herbicidal effect by soil treatment, M: velvetleaf: 0 (Herbicidal rate of 5% or less (almost no effect))
Redroot pigweed [10]
  Herbicidal effect by soil treatment, N: redroot pigweed: 3 (Herbicidal rate of 40% or more and less than 70%)
Lambsquarters [11]
  Herbicidal effect by soil treatment, O: lambsquarters: 3 (Herbicidal rate of 40% or more and less than 70%)
Chickweed [12]
  Herbicidal effect by soil treatment, P: chickweed: 1 (Herbicidal rate of 5% or more and less than 20%)
Persian speedwell [13]
  Herbicidal effect by soil treatment, R: persian speedwell: 0 (Herbicidal rate of 5% or less (almost no effect))
Southern crabgrass [14]
  herbicidal effect on F: southern crabgrass (evaluation grade 0-5): 3 (Herbicidal rate of 40% or more and less than 70%)
Green foxtail [15]
  herbicidal effect on G: green foxtail (evaluation grade 0-5): 4 (Herbicidal rate of 70% or more and less than 90%)
Barnyard grass [16]
  herbicidal effect on H: barnyard grass (evaluation grade 0-5): 3 (Herbicidal rate of 40% or more and less than 70%)
Wild oat [17]
  herbicidal effect on I: wild oat (evaluation grade 0-5): 0 (Herbicidal rate of 5% or less (almost no effect))
Blackgrass [18]
  herbicidal effect on J: blackgrass (evaluation grade 0-5): 0 (Herbicidal rate of 5% or less (almost no effect))
Italian ryegrass [19]
  herbicidal effect on K: Italian ryegrass (evaluation grade 0-5): 0 (Herbicidal rate of 5% or less (almost no effect))
Windgrass [20]
  herbicidal effect on L: windgrass (evaluation grade 0-5): 0 (Herbicidal rate of 5% or less (almost no effect))
Velvetleaf [21]
  herbicidal effect on M: velvetleaf (evaluation grade 0-5): 4 (Herbicidal rate of 70% or more and less than 90%)
Redroot pigweed [22]
  herbicidal effect on N: redroot pigweed (evaluation grade 0-5): 5 (Herbicidal rate of 90% or more (almost completely withered))
Lambsquarters [23]
  herbicidal effect on O: lambsquarters (evaluation grade 0-5): 2 (Herbicidal rate of 20% or more and less than 40%)
Chickweed [24]
  herbicidal effect on P: chickweed (evaluation grade 0-5): 5 (Herbicidal rate of 90% or more (almost completely withered))
Persian speedwell [25]
  herbicidal effect on R: persian speedwell (evaluation grade 0-5): 4 (Herbicidal rate of 70% or more and less than 90%)
